Assay results from patent publication US10562859B2, “Aryl sulfonamide compounds as carbonic anhydrase inhibitors and their therapeutic use” (SignalChem LifeSciences Corporation, priority 2015, dated 2020).

Legend:
recombinant human CAIX = recombinant human CAIX (Homo sapiens, UniProt Q16790); assay: Stopped-flow CA-catalyzed CO2 hydration assay, CAIX; format: biochemical; conditions: pH 7.4, inhibitor and enzyme pre-incubated 15 minutes at room temperature
Protocol: (§1) An Applied Photophysics stopped-flow instrument was used for assaying the CA-catalyzed CO2 hydration activity. […] The CO2 concentrations ranged from 1.7 to 17 mM for the determination of the kinetic parameters and inhibition constants. For each inhibitor, at least six traces of the initial 5-10% of the reaction were used for determining the initial velocity. The uncatalyzed rates were determined in the same manner and subtracted from the total observed rates. Stock solutions of inhibitor (10 mM) were prepared in distilled-deionized water, and dilutions up to 0.01 nM were done thereafter with distilled-deionized water. Inhibitor and enzyme solutions were pre-incubated together for 15 minutes at room temperature prior to assay in order to allow for the formation of the E-I complex. The inhibition constants were obtained by nonlinear least-squares methods using PRISM 3, whereas the kinetic parameters for the uninhibited enzymes were from Lineweaver-Burk plots, and represent the mean from at least three different determinations.

recombinant human CAXII = recombinant human CAXII (Homo sapiens, UniProt O43570); assay: Stopped-flow CA-catalyzed CO2 hydration assay, CAXII; format: biochemical; conditions: pH 7.4, inhibitor and enzyme pre-incubated 15 minutes at room temperature
Protocol: as §1

Chain of recombinant human CAXII (O43570 25-354): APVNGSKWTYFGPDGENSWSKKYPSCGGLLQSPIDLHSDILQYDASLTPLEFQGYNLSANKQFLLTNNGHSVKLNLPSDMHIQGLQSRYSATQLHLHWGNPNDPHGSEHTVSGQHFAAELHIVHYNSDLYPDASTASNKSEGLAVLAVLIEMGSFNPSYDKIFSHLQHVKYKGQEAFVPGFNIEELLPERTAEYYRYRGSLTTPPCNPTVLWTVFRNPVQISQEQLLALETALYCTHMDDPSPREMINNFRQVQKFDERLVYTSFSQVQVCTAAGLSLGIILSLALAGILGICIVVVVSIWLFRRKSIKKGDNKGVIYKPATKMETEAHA

SMILES | Ki (recombinant human CAIX) | Ki (recombinant human CAXII) | Ki (nM) CAXII (recombinant human CAXII) | Ki (nM) CAIX (recombinant human CAIX)
CCCCOc1ccc(N2CCN(c3ccc(S(N)(=O)=O)cc3)C2=O)cc1 [Example 15, 4-(3-(4-butoxyphenyl)-2-oxoimidazolidin-1-yl)benzenesulfonamide] | < 10 nM | – | ++ (“++” represents the 100 nM<Ki<10 nM) | –
NS(=O)(=O)c1ccc(N2CCN(c3cc(C(F)(F)F)ccc3Cl)C2=O)cc1 [Example 12, 4-(3-(2-chloro-5-(trifluoromethyl)phenyl)-2-oxoimidazolidin-1-yl)benzenesulfonamide] | < 10 nM | < 10 nM | – | –
NS(=O)(=O)c1ccc(N2CCN(c3cc(C(F)(F)F)ccc3F)C2=O)cc1 [Example 13, 4-(3-(2-fluoro-5-(trifluoromethyl)phenyl)-2-oxoimidazolidin-1-yl)benzenesulfonamide] | < 10 nM | < 10 nM | – | –
NS(=O)(=O)c1ccc(N2CCN(c3ccc(C(F)(F)F)cc3)C2=O)cc1 [Example 8, 4-(2-oxo-3-(4-(trifluoromethyl)phenyl)imidazolidin-1-yl)benzenesulfonamide] | < 10 nM | < 10 nM | – | –
COCCOc1ccc(N2CCN(c3ccc(S(N)(=O)=O)cc3)C2=O)cc1 [Example 14, 4-(3-(4-(2-methoxyethoxy)phenyl)-2-oxoimidazolidin-1-yl)benzenesulfonamide] | < 10 nM | < 10 nM | – | –
NS(=O)(=O)c1ccc(N2CCN(C3CCCCC3)C2=O)cc1 [Example 5, 4-(3-cyclohexyl-2-oxoimidazolidin-1-yl)benzenesulfonamide] | – | – | ++ (“++” represents the 100 nM<Ki<10 nM) | ++ (“++” represents the 100 nM<Ki<10 nM)
CC(C)c1ccccc1N1CCN(c2ccc(S(N)(=O)=O)cc2)C1=O [Example 11, 4-(3-(2-isopropylphenyl)-2-oxoimidazolidin-1-yl)benzenesulfonamide] | < 10 nM | < 10 nM | – | –
NS(=O)(=O)c1ccc(N2CCN(c3ccc(Cl)cc3F)C2=O)cc1 [Example 7, 4-(3-(4-chloro-2-fluorophenyl)-2-oxoimidazolidin-1-yl)benzenesulfonamide] | < 10 nM | – | ++ (“++” represents the 100 nM<Ki<10 nM) | –
NS(=O)(=O)c1ccc(N2CCN(CC3CC3)C2=O)cc1 [Example 10, 4-(3-(cyclopropylmethyl)-2-oxoimidazolidin-1-yl)benzenesulfonamide] | < 10 nM | < 10 nM | – | –
NS(=O)(=O)c1ccc(N2CCN(C3CCCC3)C2=O)cc1 [Example 4, 4-(3-cyclopentyl-2-oxoimidazolidin-1-yl)benzenesulfonamide] | – | – | ++ (“++” represents the 100 nM<Ki<10 nM) | ++ (“++” represents the 100 nM<Ki<10 nM)
NS(=O)(=O)c1ccc(N2CCN(Cc3ccc(F)cc3)C2=O)cc1 [Example 9, 4-(3-(4-fluorobenzyl)-2-oxoimidazolidin-1-yl)benzenesulfonamide] | – | – | ++ (“++” represents the 100 nM<Ki<10 nM) | ++ (“++” represents the 100 nM<Ki<10 nM)
COc1cc(N2CCN(c3ccc(S(N)(=O)=O)cc3)C2=O)cc(OC)c1OC [Example 3, 4-(2-oxo-3-(3,4,5-trimethoxyphenyl)imidazolidin-1-yl)benzenesulfonamide] | < 10 nM | – | ++ (“++” represents the 100 nM<Ki<10 nM) | –
NS(=O)(=O)c1ccc(N2CCN(c3ccc(Br)cc3F)C2=O)cc1 [Example 6, 4-(3-(4-bromo-2-fluorophenyl)-2-oxoimidazolidin-1-yl)benzenesulfonamide] | – | – | ++ (“++” represents the 100 nM<Ki<10 nM) | ++ (“++” represents the 100 nM<Ki<10 nM)
NS(=O)(=O)c1ccc(N2CCN(c3cccc(F)c3)C2=O)cc1 [Example 1, 4-(3-(3-fluorophenyl)-2-oxoimidazolidin-1-yl)benzenesulfonamide] | – | – | ++ (“++” represents the 100 nM<Ki<10 nM) | ++ (“++” represents the 100 nM<Ki<10 nM)
CCCCOc1ccc(N2CCN(c3ccc(S(N)(=O)=O)cc3)C2=O)c(F)c1 [Example 26, 4-(3-(4-butoxy-2-fluorophenyl)-2-oxoimidazolidin-1-yl)benzenesulfonamide] | < 10 nM | – | ++ (“++” represents the 100 nM<Ki<10 nM) | –
Cc1cc(C)cc(N2CCN(c3ccc(S(N)(=O)=O)cc3)C2=O)c1 [Example 2, 4-(3-(3,5-dimethylphenyl)-2-oxoimidazolidin-1-yl)benzenesulfonamide] | – | – | ++ (“++” represents the 100 nM<Ki<10 nM) | ++ (“++” represents the 100 nM<Ki<10 nM)

Further lines, results first:

Ki (recombinant human CAIX) | Ki (recombinant human CAXII) | Ki (nM) CAXII (recombinant human CAXII) | Ki (nM) CAIX (recombinant human CAIX) | SMILES
> 100000 nM | > 100000 nM | – | – | NS(=O)(=O)c1ccc(N2CCN(c3ccc(F)cn3)C2=O)cc1 [Example 28.1, 4-(3-(5-fluoropyridin-2-yl)-2-oxoimidazolidin-1-yl)benzenesulfonamide]
< 10 nM | – | ++ (“++” represents the 100 nM<Ki<10 nM) | – | NS(=O)(=O)c1ccc(N2CCN(c3ccc(Cl)c(F)c3)C2=O)cc1 [Example 27, 4-(3-(4-chloro-3-fluorophenyl)-2-oxoimidazolidin-1-yl)benzenesulfonamide]
< 10 nM | – | ++ (“++” represents the 100 nM<Ki<10 nM) | – | NS(=O)(=O)c1ccc(N2CCN(c3ccc(F)cc3)C2=O)cc1 [Example 21, 4-(3-(4-fluorophenyl)-2-oxoimidazolidin-1-yl)benzenesulfonamide]
> 100000 nM | < 10 nM | – | – | CN1CCN(c2ccc(N3CCN(c4ccc(S(N)(=O)=O)cc4)C3=O)c(F)c2)CC1 [Example 28.2, 4-(3-(2-fluoro-4-(4-methylpiperazin-1-yl)phenyl)-2-oxoimidazolidin-1-yl)benzenesulfonamide]
< 10 nM | < 10 nM | – | – | NS(=O)(=O)c1ccc(N2CCN(c3cc(F)cc(F)c3)C2=O)cc1 [Example 23, 4-(3-(3,5-difluorophenyl)-2-oxoimidazolidin-1-yl)benzenesulfonamide]
< 10 nM | – | ++ (“++” represents the 100 nM<Ki<10 nM) | – | NS(=O)(=O)c1ccc(N2CCN(c3ccc(F)c(Cl)c3)C2=O)cc1 [Example 22, 4-(3-(3-chloro-4-fluorophenyl)-2-oxoimidazolidin-1-yl)benzenesulfonamide]
< 10 nM | – | ++ (“++” represents the 100 nM<Ki<10 nM) | – | COc1ccc(N2CCN(c3ccc(S(N)(=O)=O)cc3)C2=O)c(F)c1 [Example 25, 4-(3-(2-fluoro-4-methoxyphenyl)-2-oxoimidazolidin-1-yl)benzenesulfonamide]
< 10 nM | < 10 nM | – | – | CC(=O)c1ccc(N2CCN(c3ccc(S(N)(=O)=O)cc3)C2=O)cc1 [Example 17, 4-(3-(4-acetylphenyl)-2-oxoimidazolidin-1-yl)benzenesulfonamide]
< 10 nM | < 10 nM | – | – | N#Cc1ccc(N2CCN(c3ccc(S(N)(=O)=O)cc3)C2=O)cc1 [Example 16, 4-(3-(4-cyanophenyl)-2-oxoimidazolidin-1-yl)benzenesulfonamide]
< 10 nM | – | ++ (“++” represents the 100 nM<Ki<10 nM) | – | NS(=O)(=O)c1ccc(N2CCN(c3ccc(F)c(F)c3)C2=O)cc1 [Example 24, 4-(3-(3,4-difluorophenyl)-2-oxoimidazolidin-1-yl)benzenesulfonamide]
< 10 nM | < 10 nM | – | – | NS(=O)(=O)c1ccc(N2CCN(c3ccc(N4CCOCC4)cc3F)C2=O)cc1 [Example 28.3, 4-(3-(2-fluoro-4-morpholinophenyl)-2-oxoimidazolidin-1-yl)benzenesulfonamide]
